Assay results from ChEMBL document CHEMBL1201862, “PubChem BioAssay data set” (2004).
The source made the active and inactive calls.

Assays:
Perilipin-1/ABHD5 = Perilipin-1/ABHD5 (Homo sapiens, UniProt O60240+Q8WTS1); test: Luminescence-based biochemical high throughput dose response assay for inhibitors of the interaction of the lipase co-activator protein, abhydrolase domain containing 5 (ABHD5) with perilipin-1 (PLIN1) (2K validation set). [Related pubchem assays (depositor defined):AID493027, AID493057]
[1] = target: Induced myeloid leukemia cell differentiation protein Mcl-1 (Homo sapiens, UniProt Q07820); type: functional
Induced myeloid leukemia cell differentiation protein Mcl-1, sequence (Q07820 whole entry, the tested form may be a part): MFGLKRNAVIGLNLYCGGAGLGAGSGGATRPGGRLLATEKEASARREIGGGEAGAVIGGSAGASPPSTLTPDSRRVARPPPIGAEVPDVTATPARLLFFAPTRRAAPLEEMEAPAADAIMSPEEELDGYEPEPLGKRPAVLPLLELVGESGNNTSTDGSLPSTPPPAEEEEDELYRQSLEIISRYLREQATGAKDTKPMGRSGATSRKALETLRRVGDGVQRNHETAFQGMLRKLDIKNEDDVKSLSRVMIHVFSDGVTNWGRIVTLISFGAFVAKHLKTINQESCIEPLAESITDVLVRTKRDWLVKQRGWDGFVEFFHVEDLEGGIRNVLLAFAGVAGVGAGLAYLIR

[2] = target: 1-acylglycerol-3-phosphate O-acyltransferase ABHD5/Perilipin-5 (Homo sapiens, UniProt Q00G26+Q8WTS1); test: Luminescence-based biochemical high throughput dose response assay for inhibitors of the interaction of the lipase co-activator protein, abhydrolase domain containing 5 (ABHD5) with perilipin-5 (MLDP; PLIN5) (2K validation set). [Related pubchem assays (depositor defined):AID493035, AID493241]
[3] = target: T1, Kappa-type opioid receptor (Homo sapiens, UniProt P41145); test: SAR analysis of Antagonists of the Kappa Opioid Receptor (KOR) using an Image-Based Assay - Set 3. [Related pubchem assays (depositor defined):AID1777, AID1785]; type: functional
T1 sequence (P41145 whole entry): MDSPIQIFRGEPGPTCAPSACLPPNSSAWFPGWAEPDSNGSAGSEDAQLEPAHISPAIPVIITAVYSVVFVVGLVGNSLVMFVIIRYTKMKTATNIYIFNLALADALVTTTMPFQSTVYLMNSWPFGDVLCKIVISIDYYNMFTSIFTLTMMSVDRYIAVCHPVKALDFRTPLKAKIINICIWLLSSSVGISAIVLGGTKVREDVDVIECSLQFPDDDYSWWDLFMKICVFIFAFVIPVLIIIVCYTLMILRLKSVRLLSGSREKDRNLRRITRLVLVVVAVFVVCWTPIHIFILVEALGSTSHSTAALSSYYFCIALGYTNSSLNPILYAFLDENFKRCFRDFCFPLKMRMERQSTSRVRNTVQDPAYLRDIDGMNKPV

Mu-type opioid receptor = Mu-type opioid receptor (Homo sapiens, UniProt P35372); test: SAR Analysis of Antagonists of the MOR Receptor using an Image-Based Assay - Set 3. [Related pubchem assays (depositor defined):AID1777, AID1785, AID1786, AID1966, AID2133, AID2136, AID2284, AID2285, AID2420]; type: functional
[4] = target: Delta-type opioid receptor (Homo sapiens, UniProt P41143); test: SAR Analysis of Antagonists of the DOR Receptor using an Image-Based Assay - Set 3. [Related pubchem assays (depositor defined):AID1777, AID1785]; type: functional;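 also: U2OS cells expressing DOR1 and beta-arrestin GFP stimulated with 100 nM SNC80; imaging of GFP-tagged beta-arrestin moving into spots after receptor activation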
Delta-type opioid receptor, sequence (P41143 whole entry): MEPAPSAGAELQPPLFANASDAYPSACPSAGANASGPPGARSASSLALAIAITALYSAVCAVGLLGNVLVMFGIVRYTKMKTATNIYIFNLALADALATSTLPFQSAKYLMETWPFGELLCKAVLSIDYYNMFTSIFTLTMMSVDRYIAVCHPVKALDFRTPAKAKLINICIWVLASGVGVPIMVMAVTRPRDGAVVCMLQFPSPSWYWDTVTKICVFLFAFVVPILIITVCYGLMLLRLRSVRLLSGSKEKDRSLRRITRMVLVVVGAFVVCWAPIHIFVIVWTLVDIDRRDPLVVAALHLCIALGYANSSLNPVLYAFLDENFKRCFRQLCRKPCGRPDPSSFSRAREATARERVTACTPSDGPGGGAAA

[5] = target: T1, Kappa-type opioid receptor; test: SAR analysis of small molecule antagonists of the kappa opioid receptor via a luminescent beta-arrestin assay - Set 3. [Related pubchem assays (depositor defined):AID1777, AID1778, AID1785, AID1786, AID1966, AID2133, AID2136, AID2285, AID2495]; type: functional
Integrin alpha-4 = Integrin alpha-4 (Homo sapiens, UniProt P13612); test: allosteric modulators of alpha4 integrin VLA-4 – cell-based, LIBS antibody binding, flow cytometry, SAR follow-up (AID 488791); type: functional
[6] = viability loss in HEK293 cells – cell-based, plate reader, cherry-picked samples, cytotoxicity control, dose response (AID 743446); type: functional
[7] = blockers of bursicon-stimulated LGR2 cAMP reporter – cell-based, HEK293, CRE-luciferase reporter, cherry pick, set 2, dose response (AID 743343); type: functional;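 also: transfected cells were stimulated with diluted bursicon conditioned medium after compound addition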
[8] = Luminescence Cell-Based Dose Retest to Confirm Inhibitors of Cancer Stem Cells. [Related pubchem assays (depositor defined):AID2717, AID2721]; type: functional; conditions: Homo sapiens
Melanocortin receptor 4 = Melanocortin receptor 4 (Homo sapiens, UniProt P32245); type: functional, cell-based;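 also: Cell-based assay with luminescence read-out, confirmatory dose-response testing for agonist activity of biased ligands at MC4R; human U2OS cells with tagged receptor and beta-arrestin; potency of agonists that increase receptor coupling to beta-arrestin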
Melanocortin receptor 4, sequence (P32245 whole entry): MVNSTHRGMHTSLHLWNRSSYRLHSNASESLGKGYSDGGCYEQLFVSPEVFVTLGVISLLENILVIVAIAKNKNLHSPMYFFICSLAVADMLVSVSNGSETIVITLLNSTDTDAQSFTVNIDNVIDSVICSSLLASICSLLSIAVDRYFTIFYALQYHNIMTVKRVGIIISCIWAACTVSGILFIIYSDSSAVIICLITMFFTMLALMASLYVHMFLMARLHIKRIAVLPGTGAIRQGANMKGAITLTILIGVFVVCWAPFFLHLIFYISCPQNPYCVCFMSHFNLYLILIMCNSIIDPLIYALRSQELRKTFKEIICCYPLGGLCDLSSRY

[9] = A549 cell cytotoxicity, dose response, cytotoxicity control, plate reader, cherry-pick, antagonist series (AID 743412); type: functional, cell-based
[10] = toxicity toward HepG2 liver cells – cell-based, plate reader, cherry-pick, antagonist series, cytotoxicity control, dose response (AID 743416); type: functional
[11] = blockade of melanocortin 4 receptor signaling – cell-based, plate reader, cherry pick, counter-screen for LGR2 antagonist project, dose response (AID 743444); type: functional;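 also: transfected HEK 293 cells stimulated with alpha-MSH peptide; potency of inhibitors of the alpha-MSH evoked signal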
[12] = target: T2, Ubiquitin-conjugating enzyme E2 N (Homo sapiens, UniProt P61088); type: functional;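 also: Dose-response confirmation in a TR-FRET assay detecting UBC13-driven polyubiquitin chain formation, inhibition measured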
T2 sequence (P61088 whole entry): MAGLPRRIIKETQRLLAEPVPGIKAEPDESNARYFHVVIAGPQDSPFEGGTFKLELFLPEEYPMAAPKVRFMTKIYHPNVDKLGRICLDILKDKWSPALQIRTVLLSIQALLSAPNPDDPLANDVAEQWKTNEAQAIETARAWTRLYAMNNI

[13] = target: Dual specificity protein phosphatase 3 (Homo sapiens, UniProt P51452); test: SAR VHR1 Fluorescent Assay for In Vitro dose response studies Set 2. [Related pubchem assays (depositor defined):AID1654, AID1661, AID1878]; type: functional
Dual specificity protein phosphatase 3, sequence (P51452 whole entry): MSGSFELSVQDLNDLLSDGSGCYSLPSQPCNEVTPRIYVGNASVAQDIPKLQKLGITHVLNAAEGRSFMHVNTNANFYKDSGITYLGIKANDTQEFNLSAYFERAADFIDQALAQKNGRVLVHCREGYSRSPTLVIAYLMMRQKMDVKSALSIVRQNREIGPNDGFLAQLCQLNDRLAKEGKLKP

[14] = target: Tyrosine-protein phosphatase non-receptor type 7 (Homo sapiens, UniProt P35236); test: SAR analysis of chemical inhibitors of HePTP using a Fluorescent assay - Set 2. [Related pubchem assays (depositor defined):AID1059, AID1077, AID1661, AID2085, AID521]; type: functional
[15] = target: T3, Voltage-gated N-type calcium channel alpha-1B subunit/Amyloid beta A4 precursor protein-binding family A member 1 (Homo sapiens, UniProt Q00975+Q02410); type: protein assay
T3 sequence (Q00975 whole entry): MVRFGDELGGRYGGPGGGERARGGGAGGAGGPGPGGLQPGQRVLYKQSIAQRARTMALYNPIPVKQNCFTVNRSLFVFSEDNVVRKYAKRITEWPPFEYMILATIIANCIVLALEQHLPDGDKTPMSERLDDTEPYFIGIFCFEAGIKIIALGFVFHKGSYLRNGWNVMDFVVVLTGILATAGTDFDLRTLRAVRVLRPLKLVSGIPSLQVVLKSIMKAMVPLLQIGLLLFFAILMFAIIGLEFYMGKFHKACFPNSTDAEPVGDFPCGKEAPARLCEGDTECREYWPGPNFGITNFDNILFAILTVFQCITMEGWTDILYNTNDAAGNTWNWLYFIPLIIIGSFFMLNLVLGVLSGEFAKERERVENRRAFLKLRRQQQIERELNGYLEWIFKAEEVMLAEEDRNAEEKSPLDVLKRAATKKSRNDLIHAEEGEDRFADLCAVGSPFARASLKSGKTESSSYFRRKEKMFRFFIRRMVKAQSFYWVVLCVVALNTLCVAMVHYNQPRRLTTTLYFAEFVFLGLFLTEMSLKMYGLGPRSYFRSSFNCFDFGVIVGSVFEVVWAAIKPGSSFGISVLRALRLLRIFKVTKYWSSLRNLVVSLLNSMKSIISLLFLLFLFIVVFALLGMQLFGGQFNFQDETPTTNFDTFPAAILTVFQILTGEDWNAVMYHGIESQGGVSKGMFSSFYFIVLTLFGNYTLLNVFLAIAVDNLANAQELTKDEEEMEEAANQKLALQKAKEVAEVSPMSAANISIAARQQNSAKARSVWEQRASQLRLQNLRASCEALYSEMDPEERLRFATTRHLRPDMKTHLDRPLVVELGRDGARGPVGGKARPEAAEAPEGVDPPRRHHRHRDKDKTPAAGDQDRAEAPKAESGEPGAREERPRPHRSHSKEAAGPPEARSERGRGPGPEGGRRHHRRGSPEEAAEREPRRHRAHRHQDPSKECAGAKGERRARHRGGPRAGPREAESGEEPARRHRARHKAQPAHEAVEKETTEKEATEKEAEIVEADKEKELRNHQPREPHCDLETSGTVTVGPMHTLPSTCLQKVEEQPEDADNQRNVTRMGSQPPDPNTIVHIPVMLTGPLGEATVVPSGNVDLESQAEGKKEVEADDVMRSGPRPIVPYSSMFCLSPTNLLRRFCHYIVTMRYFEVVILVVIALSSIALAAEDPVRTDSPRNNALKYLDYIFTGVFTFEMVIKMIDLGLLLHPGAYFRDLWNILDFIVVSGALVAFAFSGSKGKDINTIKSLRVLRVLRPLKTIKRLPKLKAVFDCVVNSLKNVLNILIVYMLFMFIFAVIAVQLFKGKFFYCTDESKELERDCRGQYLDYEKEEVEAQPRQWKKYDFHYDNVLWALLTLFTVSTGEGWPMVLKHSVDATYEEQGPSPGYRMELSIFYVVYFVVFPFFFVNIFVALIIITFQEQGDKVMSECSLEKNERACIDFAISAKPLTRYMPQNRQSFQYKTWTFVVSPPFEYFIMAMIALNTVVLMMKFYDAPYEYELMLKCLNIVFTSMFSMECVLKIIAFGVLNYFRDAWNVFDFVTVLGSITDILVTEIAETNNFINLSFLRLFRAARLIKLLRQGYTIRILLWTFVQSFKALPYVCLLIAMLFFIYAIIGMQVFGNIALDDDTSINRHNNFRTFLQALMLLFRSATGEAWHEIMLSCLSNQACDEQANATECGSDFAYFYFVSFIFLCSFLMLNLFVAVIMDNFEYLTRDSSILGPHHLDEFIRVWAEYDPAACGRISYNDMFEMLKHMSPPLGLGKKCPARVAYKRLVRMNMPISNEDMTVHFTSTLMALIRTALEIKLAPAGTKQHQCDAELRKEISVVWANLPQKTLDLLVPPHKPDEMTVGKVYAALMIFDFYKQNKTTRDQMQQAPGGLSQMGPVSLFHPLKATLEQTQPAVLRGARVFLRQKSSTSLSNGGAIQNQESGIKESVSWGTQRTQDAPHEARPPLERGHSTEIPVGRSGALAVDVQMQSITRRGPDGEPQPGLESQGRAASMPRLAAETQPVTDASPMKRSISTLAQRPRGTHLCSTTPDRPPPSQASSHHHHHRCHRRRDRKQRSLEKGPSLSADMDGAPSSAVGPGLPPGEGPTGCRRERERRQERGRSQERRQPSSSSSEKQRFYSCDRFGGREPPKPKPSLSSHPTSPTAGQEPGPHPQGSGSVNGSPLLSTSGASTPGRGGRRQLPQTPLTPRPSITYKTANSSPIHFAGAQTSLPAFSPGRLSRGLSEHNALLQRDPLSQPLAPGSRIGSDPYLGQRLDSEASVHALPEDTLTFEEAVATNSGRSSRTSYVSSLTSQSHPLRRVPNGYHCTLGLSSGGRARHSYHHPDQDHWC
T3 sequence (Q02410 whole entry): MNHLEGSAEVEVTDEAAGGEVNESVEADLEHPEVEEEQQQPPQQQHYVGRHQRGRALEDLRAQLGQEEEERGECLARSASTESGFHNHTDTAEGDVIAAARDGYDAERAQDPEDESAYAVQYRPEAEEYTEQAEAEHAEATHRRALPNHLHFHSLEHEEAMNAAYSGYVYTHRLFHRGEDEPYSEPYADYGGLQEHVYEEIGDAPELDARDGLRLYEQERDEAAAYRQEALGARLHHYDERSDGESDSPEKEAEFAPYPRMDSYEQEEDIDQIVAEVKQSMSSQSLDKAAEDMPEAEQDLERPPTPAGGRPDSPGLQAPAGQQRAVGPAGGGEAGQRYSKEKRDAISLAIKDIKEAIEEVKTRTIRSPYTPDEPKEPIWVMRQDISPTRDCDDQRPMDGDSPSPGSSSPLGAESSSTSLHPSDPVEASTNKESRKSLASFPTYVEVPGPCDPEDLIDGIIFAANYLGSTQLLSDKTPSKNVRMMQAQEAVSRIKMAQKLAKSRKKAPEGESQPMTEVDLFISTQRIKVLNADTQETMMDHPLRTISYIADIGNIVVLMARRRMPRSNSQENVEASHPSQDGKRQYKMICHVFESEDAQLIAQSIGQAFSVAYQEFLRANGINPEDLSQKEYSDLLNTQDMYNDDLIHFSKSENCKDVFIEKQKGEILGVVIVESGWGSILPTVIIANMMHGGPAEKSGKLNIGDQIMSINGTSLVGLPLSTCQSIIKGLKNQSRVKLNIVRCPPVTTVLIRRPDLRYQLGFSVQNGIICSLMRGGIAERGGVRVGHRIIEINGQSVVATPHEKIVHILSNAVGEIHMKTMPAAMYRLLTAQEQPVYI

[16] = target: T3, Voltage-gated N-type calcium channel alpha-1B subunit/Amyloid beta A4 precursor protein-binding family A member 1; type: protein assay; remark: listed apart in the source
[17] = target: Polyadenylate-binding protein 1 (Homo sapiens, UniProt P11940); test: blockers of PABP interaction with poly(A) – biochemical, fluorescence polarization, […] (AID 2014)
[18] = target: Eukaryotic translation initiation factor 4H (Homo sapiens, UniProt Q15056); test: eIF4H binding inhibition – biochemical, uHTS, fluorescence polarization, translation initiation inhibitor project, primary screen (AID 2012)
T-cell = test: loss of vesicle association with mouse CD8+ T cells – mouse 2C CD8+ T cells, flow cytometry, dose response (AID 485284); type: functional
Nonstructural protein 1 = Nonstructural protein 1 (Influenza A virus, UniProt Q194T2); type: functional, Influenza A virus (A/California/07/2009(H1N1))
BJ [19] = test: BJ-TERT fibroblast viability loss – cell-based, RAS-independent, luminescence, dose response (AID 1933); type: functional; conditions: Homo sapiens
[20] = DRD fibroblast viability loss – cell-based, non-viral oncogenic, luminescence, dose response (AID 1934); type: functional; conditions: Homo sapiens
BJ [21] = test: cells; type: functional, cell-based; conditions: Homo sapiens
[22] = target: T4, Histone-lysine N-methyltransferase NSD2 (Homo sapiens, UniProt O96028); type: biochemical
T4 sequence (O96028 whole entry): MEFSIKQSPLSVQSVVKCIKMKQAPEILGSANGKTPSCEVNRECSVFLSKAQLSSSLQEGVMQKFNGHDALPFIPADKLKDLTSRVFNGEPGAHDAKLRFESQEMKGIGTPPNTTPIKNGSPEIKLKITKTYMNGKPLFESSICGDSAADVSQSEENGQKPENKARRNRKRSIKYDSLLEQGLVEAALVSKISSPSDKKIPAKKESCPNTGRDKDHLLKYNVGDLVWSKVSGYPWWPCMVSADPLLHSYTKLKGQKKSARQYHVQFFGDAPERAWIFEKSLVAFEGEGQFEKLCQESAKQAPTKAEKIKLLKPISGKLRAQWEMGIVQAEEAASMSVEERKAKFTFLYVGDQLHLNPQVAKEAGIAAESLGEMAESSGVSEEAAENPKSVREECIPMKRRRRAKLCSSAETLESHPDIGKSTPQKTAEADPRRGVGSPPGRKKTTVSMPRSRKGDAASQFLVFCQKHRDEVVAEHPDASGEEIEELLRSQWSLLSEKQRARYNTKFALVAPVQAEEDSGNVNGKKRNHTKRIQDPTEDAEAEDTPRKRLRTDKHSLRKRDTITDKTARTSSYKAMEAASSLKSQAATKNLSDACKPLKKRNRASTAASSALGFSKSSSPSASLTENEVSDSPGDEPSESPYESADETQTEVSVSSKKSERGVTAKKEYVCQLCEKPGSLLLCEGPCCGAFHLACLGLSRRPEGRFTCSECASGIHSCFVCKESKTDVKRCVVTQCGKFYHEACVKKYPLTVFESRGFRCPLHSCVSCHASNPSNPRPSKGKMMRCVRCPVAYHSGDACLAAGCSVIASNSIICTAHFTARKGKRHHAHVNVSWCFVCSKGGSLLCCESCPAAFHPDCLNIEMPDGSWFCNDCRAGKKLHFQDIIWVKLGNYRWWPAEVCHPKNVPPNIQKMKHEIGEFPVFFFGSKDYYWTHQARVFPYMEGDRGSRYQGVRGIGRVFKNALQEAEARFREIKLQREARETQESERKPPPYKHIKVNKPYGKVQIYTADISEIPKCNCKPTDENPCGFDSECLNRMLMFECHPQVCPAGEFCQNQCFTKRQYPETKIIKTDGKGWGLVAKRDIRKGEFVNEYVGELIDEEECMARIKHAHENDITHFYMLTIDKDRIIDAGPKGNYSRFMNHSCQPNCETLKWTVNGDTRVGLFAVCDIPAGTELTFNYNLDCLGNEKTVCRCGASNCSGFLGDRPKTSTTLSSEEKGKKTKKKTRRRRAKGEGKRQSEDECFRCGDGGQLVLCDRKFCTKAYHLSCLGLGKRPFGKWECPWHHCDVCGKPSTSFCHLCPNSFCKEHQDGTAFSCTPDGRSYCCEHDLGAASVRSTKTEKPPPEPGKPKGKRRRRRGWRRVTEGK

[23] = target: G-protein coupled receptor 55 (Homo sapiens, UniProt Q9Y2T6); test: selective activators of receptor GPR55 – imaging, U2OS cells, beta-arrestin-GFP redistribution, primary screen (AID 1961); type: functional
HEK293 [24] = test: cells; type: functional, cell-based; conditions: Homo sapiens
[25] = fluconazole-exposed Candida albicans growth modulators – fluorescence, retest, confirmation (AID 2467); type: functional, cell-based
[26] = NIH3T3 cell viability loss – ATP luminescence, mouse fibroblasts, counter-screen, dose response (AID 2010); type: functional, cell-based;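 also: cells exposed to compound for about 90 hours before reading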
Protein S100-A4 = Protein S100-A4 (Homo sapiens, UniProt P26447); test: human S100A4 peptide interaction inhibition curves – biochemical, fluorescence polarization, cherry-picked hits, dose response (AID 687001); type: functional
[27] = Trypanosoma cruzi growth suppression in host cells – NIH3T3 host cells, beta-gal luminescence, confirmation (AID 2044); type: functional, cell-based;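 also: intracellular parasites grown in NIH/3T3 mouse fibroblasts as host cells; luminescent beta-galactosidase reporter signal from transgenic T. cruzi replicating inside host cells; inhibitors lower the luminescence signal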
[28] = target: Nucleotide-binding oligomerization domain-containing protein 2 (Homo sapiens, UniProt Q9HC29); test: inhibition of NOD2-driven NF-kB reporter – cell-based, luminescence, uHTS, HEK293 (AID 1566); type: functional
BJ [29] = test: BJ-TERT-LT-ST fibroblast viability loss – cell-based, RAS-independent, luminescence, dose response (AID 1935); type: functional; conditions: Homo sapiens;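 also: BJ fibroblasts immortalized with TERT plus LT and ST oncogenes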
[30] = NIH-3T3 fibroblast cytotoxicity, dose response, cytotoxicity control, cell-based, fluorescence, Alamar Blue, secondary assay (AID 2327); type: functional;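 also: NIH-3T3 mouse fibroblasts cultured with fluconazole at 8 µg/mL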
[31] = HEK-293T viability loss after treatment – luminescence, T-cell screen hits, cytotoxicity control for TCR NF-kB inhibitor project, dose response (AID 489026); type: functional, cell-based;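 also: cells exposed to compound about 14 hours before the viability readout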
HEK293 [32] = test: cells; type: functional, cell-based; conditions: Homo sapiens; remark: listed apart in the source
HEK293 [33] = test: NOD2 signaling inhibitors in MDP-stimulated cells, cell-based, uHTS, luminescence (AID 2001); type: functional; conditions: Homo sapiens
HEK293 [34] = test: cells; type: functional, cell-based; conditions: Homo sapiens; remark: listed apart in the source
HEK293 [35] = test: inhibition of NOD1-driven NF-kB reporter – cell-based, luminescence, uHTS, primary screen (AID 1578); type: functional; conditions: Homo sapiens

## COC(=O)c1cc(-c2ccc(C)o2)nc2ccccc12
Perilipin-1/ABHD5
  IC50: 8.68 µM (active)
[1]
  IC50: 18 µM (active)
[2]
  IC50: 8.7 µM (active)

## COc1ccc(S(=O)(=O)NCc2ccc(C(=O)NCCN(Cc3ccccc3)C(C)C)cc2)cc1
[3]
  IC50: 0.806 µM (active)
Mu-type opioid receptor
  IC50: 9.6 µM (active)
[4]
  IC50: > 32 µM (inactive)
[5]
  IC50: 2.63 µM (active)

## COc1cccc(-c2sc3ccccc3c2-c2ccc(OCCN(C)C)cc2)c1
Integrin alpha-4
  EC50: 29.1 µM (active)
[6]
  AC50: 15.2 µM (active)
[7]
  AC50: 13 µM (active)
[8]
  AC50: 3.29 µM (active)
Melanocortin receptor 4
  EC50: > 3.3 µM (active)
[9]
  AC50: 7.82 µM (active)
[10]
  AC50: 8.01 µM (active)
[11]
  AC50: 11.7 µM (active)
[12]
  IC50: > 20 µM (inactive)

## CC(C)(C)c1cc(C(=S)NCc2ccc(F)c(C(F)(F)F)c2)cc(C(C)(C)C)c1
[13]
  IC50: 67.4 µM (active)
[14]
  IC50: 27 µM (active)

## CC(/C=C/c1ccco1)=N/NC(=O)Cc1cccs1
[15]
  IC50: 18.9 µM (active)
[16]
  IC50: 24.6 µM (active)
[17]
  IC50: > 100 µM (inactive)
[18]
  IC50: 23.6 µM (active)

## Cc1ccc(/C=N/NC2=NC(=O)C(CC(=O)Nc3ccc(Cl)cc3)S2)o1 (stereo not drawn)
T-cell
  EC50: 15.2 µM (active)

## CCN(CC)c1ccc(/C=C/c2ccc3ccc(OC)cc3[n+]2CC)cc1
Nonstructural protein 1
  IC50: 17.3 µM (active)
cells
  EC50: 0.023 µM (active)
BJ [19]
  EC50: 0.732 µM (inconclusive)
[20]
  EC50: 2.25 µM (active)
BJ [21]
  EC50: 2.82 µM (active)
[22]
  AC50: 17.4 µM (active)
[23]
  EC50: > 32 µM (inactive)
HEK293 [24]
  IC50: > 20 µM (inactive)
[25]
  EC50: < 0.03 µM (active)
[26]
  EC50: 5.54 µM (active)
Protein S100-A4
  AC50: 1.12 µM (active)
[27]
  EC50: < 0.1 µM (active)
[28]
  EC50: 6.78 µM (active)
BJ [29]
  EC50: 0.892 µM (inconclusive)
[30]
  EC50: > 160 µM (inconclusive)
[31]
  IC50: > 80 µM (inactive)
HEK293 [32]
  IC50: 9.34 µM (active)
HEK293 [33]
  IC50: 2.2 µM (active)
HEK293 [34]
  IC50: 1.9 µM (active)
HEK293 [35]
  EC50: 3.64 µM (active)
